{
  "source": "patent US8455009B2",
  "about": "“Amniotic membrane preparations and purified compositions and anti-inflammation methods” (TissueTech, Inc., priority 2005, dated 2013)",
  "key": {"Raw264.7 cells": {"tested_on": "Raw264.7 cells", "assay": "NO assay (nitrite, Griess reagent) in Raw264.7 macrophages", "type": "cell-based, mouse", "details": "500 μM inhibitor; cells cultured on AM", "method": "Raw 264.7 cells, a mouse macrophage cell line, were obtained from the ATCC and cultured in phenol red-free Dulbecco's modified Eagle's medium (DMEM) supplemented with 10% fetal bovine serum, 50 μg/ml gentamicin, and 1.25 μg/ml fungizone in 100 mm culture dishes. When cells became 70%-80% confluent, the medium was removed and cells were treated with trypsin/EDTA for 10 min at 25° C. After digestion, cells were still firmly attached to the dish, so the trypsin/EDTA solution was removed. […] After centrifugation at 500×g for 5 min, the medium was removed, the cell pellet resuspended in the DMEM/ITS medium, cells counted, and cell density adjusted to 0.5×10^6/ml. […]\nAt the end of the cultivation, the cell culture medium in each well was harvested individually and centrifuged at 12,000×g for 10 min at 4° C. […] NO production was assessed by measuring the nitrite, its stable degradation product, using Griess reagent according to the manufacturer's protocol. Briefly, 50 μl of the cleared medium was mixed with 100 μl of the Griess reagents (ICN Biomedicals, Aurora, Ohio), after 15 min the absorbance was measured at 550 nm using Fusion™ universal microplate analyzer (Packard, Meriden, Conn.). The amount of nitrite was calculated from a standard curve of sodium nitrite (NaNO2; Sigma, St. Louis, Mo.)."}, "Raw 264.7 cells": {"tested_on": "Raw 264.7 cells", "assay": "Hoechst-33342 nuclear staining of macrophages", "type": "cell-based, mouse", "details": "500 μM inhibitor; cells on AM with IFN γ", "from_the_text": "To determine if the aforementioned cell death was mediated by apoptosis, cells in parallel experiments were subjected to Hoechst-33342 staining. Fragmented nuclei with strong Hoechst staining were found more in AM/IFN γ as compared to AM without IFN γ and to their plastic controls. Percentages of Hoechst-33342-positive apoptotic nuclei were 12.4±2.7% (PL), 16.5±3.1% (PL/IFN γ), 14.7±1.1% (AM), and 63.8±7.9% (AM/IFN γ). There was no statistical difference between PL and PL/IFN γ and between PL and AM (all p>0.05), while there was a statistical difference between AM and AM/IFN γ and between PL/IFNγ and AM/IFNγ (all p<0.001). […] In contrast, there was no such giant cell in AM/IFNγ cultures."}, "[1]": {"tested_on": "human corneal fibroblasts", "assay": "Cell morphology and density of human corneal fibroblasts after treatment", "type": "cell-based", "details": "HA alone; low concentrations of AME or jelly extracts", "from_the_text": "The above changes were even more dramatic in lyophilized AME or L/AME than their non-lyophilized counterparts in AME or Jelly extracts, respectively (FIG. 6)."}, "TGF-β1 promoter": {"tested_on": "TGF-β1 promoter", "assay": "TGF-β1 promoter suppression (adenoviral promoter-luciferase) in human corneal fibroblasts", "type": "cell-based", "method": "When human corneal fibroblasts cultured on 100 mm plastic dish in DMEM/10% FBS reached 80% confluency (˜1.0×10^6 cells), cells were washed twice with DMEM/10% FBS. Adenoviruses-TGF-β1 promoter-luciferase (MOI=37.5) and Adeno-CMV-beta-gal (MOI=30) were added to the culture plates with 10 ml of the fresh DMEM/10% FBS and cells were incubated at 37° C. for 4 hours, and trypsinized for 5 minutes using 4 ml prewarmed trypsin/EDTA. After trypsin/EDTA activity was neutralized with 8 ml of DMEM/10% FBS, cells were collected into a 15 ml tube and centrifuged at 1,500 rpm (˜600×g) for 5 min. After decanting the medium, cells were resuspended in 15 ml DMEM/10% FBS, and cell viability was measured by trypan blue stain. Viable 3×10^4 cells were seeded on a plastic 24 well or on the stromal surface of AM inserts. A total of 4 wells or inserts were prepared. Cells were then incubated at 37° C. in a CO2 incubator for 48 hours.\nAfter carefully removing the growth medium from each well, cells were rinsed with 0.5 ml PBS at lease twice, taking care not to dislodge attached cells. After removing as much as PBS in the well, 100 μl 1× lysis buffer was added to cover the cells, and cells were mechanically scraped and transferred to a microcentrifuge tube placed on ice. Cell lysates were collected by vortexing for 10-15 sec and centrifuging at 12,000×g for 15 sec at room temperature. […]"}},
  "data": [
    {"molecule": "CC(=O)O.CNC(=N)NCCC[C@H](N)C(=O)O", "note": "[L-NMMA, NG-monomethyl-L-arginine acetate]", "values": [
      {"measurement": "IFN γ induced nitrite level with NO synthase inhibitor", "setting": "Raw264.7 cells", "value": "19.8 ± 4.9", "unit": "µM"},
      {"measurement": "extent of macrophage apoptosis with NO synthase inhibitor", "setting": "Raw 264.7 cells", "value": "not significantly attenuated"}
    ]},
    {"molecule": "hyaluronic acid [HA]", "values": [
      {"measurement": "change in cell morphology", "setting": "[1]", "value": "no change in cell morphology"},
      {"measurement": "suppressive activity on TGF-β1 promoter, HA alone", "setting": "TGF-β1 promoter; 100 μg/ml", "value": "mild suppressive activity"},
      {"measurement": "suppression of TGF-β1 promoter activation", "setting": "TGF-β1 promoter; compared to the PBS control, normalized with beta-galatosidase activity, FIG. 5", "value": "showed suppression"}
    ]},
    {"molecule": "CC(=N)NCCCC[C@H](N)C(=O)O.Cl", "note": "[L-NIL, L-N-6-(1-iminoethyl) lysine hydrochloride]", "values": [
      {"measurement": "IFN γ induced nitrite level with NO synthase inhibitor", "setting": "Raw264.7 cells", "value": "14.0 ± 9.8", "unit": "µM"},
      {"measurement": "extent of macrophage apoptosis with NO synthase inhibitor", "setting": "Raw 264.7 cells", "value": "not significantly attenuated"}
    ]}
  ]
}
